Patent publication US7858637B2, “Administration of TLR7 ligands and prodrugs thereof for treatment of infection by hepatitis C virus” (priority 2003, dated 2010)
Where two headings read alike, the source gives them in different places.

Tests used:
[1] = system: human peripheral blood mononuclear cells (PBMC); test: PBMC assay of interferon alpha release (masking); assay type: cell-based; conditions: Homo sapiens, PBMC; Table 9; 100 μM; 24 hours exposure; same blood donor; read-out: Amount of INFa relative to that induced by isatoribine at 100 μM
[2] = cited from earlier work
[3] = Pharmacokinetics of isatoribine in beagle dogs after oral dosing; conditions: both, dog, in vivo, 50 mg/kg
Experimental: The effect of a prodrug (val-isatoribine, 24) on the systemic exposure to isatoribine (21) after oral administration to beagle dogs was investigated. Isatoribine was prepared in sodium bicarbonate solution. Val-isatoribine and isatoribine were prepared as the following formulations, which were chosen to ensure solubility: Formulation 1: […] Formulation 2: […] Four male and four female adult beagle dogs weighing between 15 to 27 kg and approximately 1-2 years old were used at the beginning of the study. The animals were divided into 2 groups of 2 males and 2 females each. The test material was administered by gavage on Days 1 and 8, allowing a 7 day washout period between administrations. […] The plasma was frozen at −70° C. until analysis. The plasma was analyzed for isatoribine by an HPLC-MS/MS assay.

human TLR7 = molecular target: T1, human TLR7 (Homo sapiens, UniProt Q9NYK1); test: HEK293-hTLR7 NF-kB luciferase reporter (C23) assay; conditions: read-out: mean fold induction of luciferase activity compared to the no drug control
T1 sequence (Q9NYK1 27-1049): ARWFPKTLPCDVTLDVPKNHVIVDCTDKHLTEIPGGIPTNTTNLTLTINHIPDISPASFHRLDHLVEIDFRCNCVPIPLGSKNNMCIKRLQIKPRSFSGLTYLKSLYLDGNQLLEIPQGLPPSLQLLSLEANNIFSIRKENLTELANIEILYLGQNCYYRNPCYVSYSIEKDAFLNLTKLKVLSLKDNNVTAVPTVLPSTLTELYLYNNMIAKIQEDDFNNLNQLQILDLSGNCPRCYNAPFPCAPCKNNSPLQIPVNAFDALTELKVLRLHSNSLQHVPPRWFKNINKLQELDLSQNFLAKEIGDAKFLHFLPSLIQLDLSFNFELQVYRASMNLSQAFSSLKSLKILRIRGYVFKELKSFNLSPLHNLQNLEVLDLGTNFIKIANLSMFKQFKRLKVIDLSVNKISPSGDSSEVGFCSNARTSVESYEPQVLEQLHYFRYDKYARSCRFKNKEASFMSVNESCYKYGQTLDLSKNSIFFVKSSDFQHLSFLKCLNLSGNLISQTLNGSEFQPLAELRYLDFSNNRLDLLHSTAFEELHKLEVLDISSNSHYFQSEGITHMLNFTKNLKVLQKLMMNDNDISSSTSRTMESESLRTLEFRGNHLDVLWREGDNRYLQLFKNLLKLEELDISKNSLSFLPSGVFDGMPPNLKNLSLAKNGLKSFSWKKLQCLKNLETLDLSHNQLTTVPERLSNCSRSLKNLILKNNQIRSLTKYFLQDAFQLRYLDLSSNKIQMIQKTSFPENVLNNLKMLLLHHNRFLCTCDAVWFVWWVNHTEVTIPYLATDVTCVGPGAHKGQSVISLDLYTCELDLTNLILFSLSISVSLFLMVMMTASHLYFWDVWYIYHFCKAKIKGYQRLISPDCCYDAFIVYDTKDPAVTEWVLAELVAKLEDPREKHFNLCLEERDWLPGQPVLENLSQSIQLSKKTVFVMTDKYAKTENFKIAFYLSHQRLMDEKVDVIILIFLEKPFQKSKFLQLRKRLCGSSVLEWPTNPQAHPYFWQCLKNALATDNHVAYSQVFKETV
Experimental: A stable HEK293-hTLR7 cell line was obtained from Invivogen (San Diego, Calif.), transfected with pNiFty2-Luc, an NF-kB inducible luciferase reporter plasmid (Invivogen) and (dual) stable transfectants selected. The resultant dual (hTLR7/pNiFty2-Luc) cell lines were functionally tested by response to loxoribine and isatoribine as measured by fold luciferase induction relative to a no drug control. […] See, e.g., Hemmi H. et al., Nat.
For a typical C23 assay, cells are seeded at 6×10^4 cells/well in 96 well plates and 4-24 hours later are treated with various concentrations of compound. After 2-48 hours exposure the cell monolayers are lyzed with passive lysis buffer (Promega) and the firefly luciferase assay carried out using the luciferase assay reagent (Promega) as specified by the manufacturer. Relative luciferase activities are expressed as folds of induction compared to the no drug control. A two-fold induction over background is considered a bona fide TLR7 agonist, dependent on this being a statistically significant increase.
In Table 1, isatoribine, was added to C23 cells for forty-eight hours, and the cells were then harvested and assayed for luciferase activity. Each time-point was assayed in triplicate.
Each time-point was assayed in triplicate.

[4] = Toxicology studies, GI tolerance in beagle dogs; assay type: in vivo, beagle dog; conditions: dog, in vivo, iv
Source text: We compared in the dog the oral toxicology of 21 and 24, and the intravenous toxicology of 21. We observed that the oral toxicology of 24 was much more like intravenous 21 than it was like oral 21.

Nc1nc2c(sc(=O)n2[C@@H]2O[C@H](CO)[C@@H](O)[C@H]2O)c(=O)[nH]1 [Compound 21, 7-thia-8-oxoguanosine]
Emax at 100 µM [1]: 100% | Emesis or loose stool ([2]; dog, in vivo, po, 2.5 mg/kg): Neg. | GI lesions or irritation ([2]; dog, in vivo, po, 2.5 mg/kg): Neg. | Emesis or loose stool ([2]; dog, in vivo, po, 5 mg/kg): + | GI lesions or irritation ([2]; dog, in vivo, po, 5 mg/kg): Neg. | Emesis or loose stool ([2]; dog, in vivo, po, 10 mg/kg): ++ | GI lesions or irritation ([2]; dog, in vivo, po, 10 mg/kg): ++ | multiple, scattered red lesions on the intestinal mucosa (gross histopathologic evaluation of the GI tract) ([2]; dog, in vivo, po, 10 mg/kg): four of eight dogs | NOAEL ([2]; dogs, orally administered, established by the GI effects): 5 mg/kg | AUC Ratio (to isatoribine in bicarbonate solution) [3]: 1.00 | Cmax Ratio (to isatoribine in bicarbonate solution) [3]: 1.00 | fold induction at 50 µM (human TLR7): 3.1 | fold induction at 100 µM (human TLR7): 3.4 | fold induction at 250 µM (human TLR7): 6.2 | fold induction at 500 µM (human TLR7): 10.9 | Emesis or loose stool ([4]; 12.5 mg/kg): Neg. | GI lesions or irritation ([4]; 12.5 mg/kg): Neg. | Emesis or loose stool ([4]; 25 mg/kg): Neg. | GI lesions or irritation ([4]; 25 mg/kg): Neg. | Emesis or loose stool ([4]; 50 mg/kg): + | GI lesions or irritation ([4]; 50 mg/kg): Neg. | Emesis or loose stool ([4]; 100 mg/kg): ++ | GI lesions or irritation ([4]; 100 mg/kg): Neg.
